One block for each compound: values may come before it.
Biological target: Recombinant human factor D (Homo sapiens (Human), UniProt P00746)
Test: Human Complement Factor D Assay: Method 1
Type: biochemical
Conditions: Factor D inhibition, Method 1: 10 nM factor D, 1 hour incubation with compound at room temperature, substrate Z-Lys-thiobenzyl, fluorescence readout; read-out: IC50
Procedure: Recombinant human factor D (expressed in E. coli and purified using standard methods) at 10 nM concentration is incubated with test compound at various concentrations for 1 hour at room temperature in 0.1 M Hepes buffer, pH 7.5, containing 1 mM MgCl2, 1 M NaCl and 0.05% CHAPS. […] IC50 values are calculated from percentage of inhibition of complement factor D-activity as a function of test compound concentration.

Sequence of Recombinant human factor D (P00746 26-253): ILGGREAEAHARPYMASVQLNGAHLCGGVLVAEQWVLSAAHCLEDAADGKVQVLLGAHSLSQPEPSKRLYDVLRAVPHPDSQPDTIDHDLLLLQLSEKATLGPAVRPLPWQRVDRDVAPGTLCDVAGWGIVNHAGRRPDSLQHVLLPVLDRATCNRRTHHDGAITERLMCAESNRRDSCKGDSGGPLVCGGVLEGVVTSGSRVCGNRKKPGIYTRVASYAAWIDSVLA

SMILES: CCc1cc2c(C(N)=O)nn(CC(=O)N3[C@@H]4C[C@@H]4C[C@H]3C(=O)N[C@@H]3C[C@H]3c3ccccc3)c2cn1 [Example 19, 5-Ethyl-1-{2-oxo-2-[(1R,3S,5R)-3-((1R,2S)-2-phenyl-cyclopropylcarbamoyl)-2-aza-bicyclo[3.1.0]hex-2-yl]-ethyl}-1H-pyrazolo[3,4-c]pyridine-3-carboxylic acid amide]
IC50: 31 nM

SMILES: NC(=O)c1nn(CC(=O)N2[C@@H]3C[C@@H]3C[C@H]2C(=O)NC2CC2c2ccc(F)cc2F)c2ccccc12 (single isomer, unassigned) [Example 76]
IC50: 36 nM

SMILES: CC(=O)c1nn(CC(=O)N2[C@@H]3C[C@@H]3C[C@H]2C(=O)NC2CC2c2ccc(OC(F)F)cc2)c2cnccc12 (stereo partly drawn) [Example 32, (1R,3S,5R)-2-[2-(3-Acetyl-pyrazolo[3,4-c]pyridin-1-yl)-acetyl]-2-aza-bicyclo[3.1.0]hexane-3-carboxylic acid[2-(4-difluoromethoxy-phenyl)-cyclopropyl]-amide]
IC50: 326 nM

SMILES: Cc1cc2c(C(N)=O)nn(CC(=O)N3[C@@H]4C[C@@H]4C[C@H]3C(=O)N[C@H]3C[C@]3(F)c3ccccc3)c2cn1 [Example 49, 1-{2-[(1R,3S,5R)-3-((1S,2S)-2-Fluoro-2-phenyl-cyclopropylcarbamoyl)-2-aza-bicyclo[3.1.0]hex-2-yl]-2-oxo-ethyl}-5-methyl-1H-pyrazolo[3,4-c]pyridine-3-carboxylic acid amide]
IC50: 1190 nM

SMILES: CC(=O)c1nn(CC(=O)N2[C@@H]3C[C@@H]3C[C@H]2C(=O)N[C@@H]2C[C@H]2c2ccccc2F)c2ncccc12 [Example 63, (1R,3S,5R)-2-[2-(3-Acetyl-pyrazolo[3,4-b]pyridin-1-yl)-acetyl]-2-aza-bicyclo[3.1.0] hexane-3-carboxylic acid [(1R,2S)-2-(2-fluoro-phenyl)-cyclopropyl]-amide]
IC50: 64 nM

SMILES: Cc1cc2c(C(N)=O)nn(CC(=O)N3[C@@H]4C[C@@H]4C[C@H]3C(=O)N[C@@H]3C[C@H]3c3ccccc3F)c2cn1 [Example 70, 1-(2-{(1R,3S,5R)-3-[(1R,2S)-2-(2-Fluoro-phenyl)-cyclopropylcarbamoyl]-2-aza-bicyclo[3.1.0]hex-2-yl}-2-oxo-ethyl)-5-methyl-1H-pyrazolo[3,4-c]pyridine-3-carboxylic acid amide]
IC50: 125 nM

SMILES: NC(=O)c1nn(CC(=O)N2[C@@H]3C[C@@H]3C[C@H]2C(=O)N[C@H]2C[C@]2(F)c2ccccc2)c2cnccc12 [Example 42, 1-{2-[(1R,3S,5R)-3-((1S,2S)-2-Fluoro-2-phenyl-cyclopropylcarbamoyl)-2-aza-bicyclo[3.1.0]hex-2-yl]-2-oxo-ethyl}-1H-pyrazolo[3,4-c]pyridine-3-carboxylic acid amide]
IC50: 3650 nM

SMILES: NC(=O)c1nn(CC(=O)N2C[C@H](F)C[C@H]2C(=O)N[C@H]2C[C@@H]2c2ccccc2F)c2cnccc12 [Example 41, 1-(2-{(2S,4R)-4-Fluoro-2-[(1S,2R)-2-(2-fluoro-phenyl)-cyclopropylcarbamoyl]-pyrrolidin-1-yl}-2-oxo-ethyl)-1H-pyrazolo[3,4-c]pyridine-3-carboxylic acid amide]
IC50: 1190 nM

SMILES: CC(=O)c1nn(CC(=O)N2[C@@H]3C[C@@H]3C[C@H]2C(=O)N[C@@H]2C[C@H]2c2ccccc2Cl)c2ncccc12 [Example 66, (1R,3S,5R)-2-[2-(3-Acetyl-pyrazolo[3,4-b]pyridin-1-yl)-acetyl]-2-aza-bicyclo[3.1.0] hexane-3-carboxylic acid [(1R,2S)-2-(2-chloro-phenyl)-cyclopropyl]-amide]
IC50: 44 nM

SMILES: CC(=O)c1nn(CC(=O)N2[C@@H]3C[C@@H]3C[C@H]2C(=O)N[C@H]2C[C@@H]2c2cccc(Cl)c2)c2ncccc12 [Example 55, (1R,3S,5R)-2-[2-(3-acetyl-pyrazolo[3,4-b]pyridin-1-yl)-acetyl]-2-aza-bicyclo[3.1.0]hexane-3-carboxylic acid[(1S,2R)-2-(3-chloro-phenyl)-cyclopropyl]-amide]
IC50: 1580 nM

SMILES: NC(=O)c1nn(CC(=O)N2[C@@H]3C[C@@H]3C[C@H]2C(=O)NC2CC2(F)c2ccccc2F)c2ccccc12 (single isomer, unassigned) [Example 53]
IC50: 36 nM

SMILES: NC(=O)c1nn(CC(=O)N2[C@@H]3C[C@@H]3C[C@H]2C(=O)N[C@@H]2C[C@H]2c2ccccc2Cl)c2cnccc12 [Example 67, 1-(2-{(1R,3S,5R)-3-[(1R,2S)-2-(2-Chloro-phenyl)-cyclopropylcarbamoyl]-2-aza-bicyclo[3.1.0]hex-2-yl}-2-oxo-ethyl)-1H-pyrazolo[3,4-c]pyridine-3-carboxylic acid amide]
IC50: 35 nM

SMILES: NC(=O)c1nn(CC(=O)N2[C@@H]3C[C@@H]3C[C@H]2C(=O)NC2CC2(F)c2ccccc2F)c2ccccc12 (single isomer, unassigned) [Example 52]
IC50: 367 nM

SMILES: CC(=O)c1nn(CC(=O)N2[C@@H]3C[C@@H]3C[C@H]2C(=O)NC2CC2c2ccc(C)c(C)c2)c2cnccc12 (stereo partly drawn) [Example 34, (1R,3S,5R)-2-[2-(3-Acetyl-pyrazolo[3,4-c]pyridin-1-yl)-acetyl]-2-aza-bicyclo[3.1.0] hexane-3-carboxylic acid [2-(3,4-dimethyl-phenyl)-cyclopropyl]-amide]
IC50: 112 nM

More lines, now with the values ahead:

IC50: 1060 nM
SMILES: CC(=O)c1nn(CC(=O)N2[C@@H]3C[C@@H]3C[C@H]2C(=O)NC2CCC(c3ccccc3)CC2)c2cnccc12 (stereo partly drawn) [Example 37, (1R,3S,5R)-2-[2-(3-Acetyl-pyrazolo[3,4-c]pyridin-1-yl)-acetyl]-2-aza-bicyclo[3.1.0] hexane-3-carboxylic acid (4-phenyl-cyclohexyl)-amide]

IC50: 702 nM
SMILES: CC(=O)c1nn(CC(=O)N2[C@@H]3C[C@@H]3C[C@H]2C(=O)N[C@H]2C[C@@H]2c2ccccc2)c2cnccc12 [Example 4, (1R,3S,5R)-2-[2-(3-Acetyl-pyrazolo[3,4-c]pyridin-1-yl)-acetyl]-2-aza-bicyclo[3.1.0] hexane-3-carboxylic acid ((1S,2R)-2-phenyl-cyclopropyl)-amide]

IC50: 147 nM
SMILES: CC(=O)c1nn(CC(=O)N2[C@@H]3C[C@@H]3C[C@H]2C(=O)N[C@@H]2C[C@H]2c2ccccc2)c2ccncc12 [Example 3, (1R,3S,5R)-2-[2-(3-Acetyl-pyrazolo[4,3-c]pyridin-1-yl)-acetyl]-2-aza-bicyclo[3.1.0] hexane-3-carboxylic acid ((1R,2S)-2-phenyl-cyclopropyl)-amide]

IC50: 118 nM
SMILES: NC(=O)c1nn(CC(=O)N2[C@@H]3C[C@@H]3C[C@H]2C(=O)N[C@@H]2C[C@H]2c2ccccc2)c2ccncc12 [Example 14, 1-{2-Oxo-2-[(1R,3S,5R)-3-((1R,2S)-2-phenyl-cyclopropylcarbamoyl)-2-aza-bicyclo[3.1.0]hex-2-yl]-ethyl}-1H-pyrazolo[4,3-c]pyridine-3-carboxylic acid amide]

IC50: 30 nM
SMILES: CC(=O)c1nn(CC(=O)N2[C@@H]3C[C@@H]3C[C@H]2C(=O)N[C@@H]2C[C@H]2c2ccccc2Cl)c2cnccc12 [Example 65, (1R,3S,5R)-2-[2-(3-Acetyl-pyrazolo[3,4-c]pyridin-1-yl)-acetyl]-2-aza-bicyclo[3.1.0] hexane-3-carboxylic acid [(1R,2S)-2-(2-chloro-phenyl)-cyclopropyl]-amide]

IC50: 214 nM
SMILES: NC(=O)c1nn(CC(=O)N2[C@@H]3C[C@@H]3C[C@H]2C(=O)N[C@@H]2C[C@@]2(F)c2ccccc2)c2cnccc12 [Example 43, 1-{2-[(1R,3S,5R)-3-((1R,2R)-2-Fluoro-2-phenyl-cyclopropylcarbamoyl)-2-aza-bicyclo[3.1.0]hex-2-yl]-2-oxo-ethyl}-1H-pyrazolo[3,4-c]pyridine-3-carboxylic acid amide]

— US9815819B2, “Complement pathway modulators and uses thereof” (priority 2012, dated 2017)
